From patent US10059655B2, “Lipids and lipid compositions for the delivery of active agents” (priority 2013, dated 2018)

Key:
Type in all cases: physicochemical
[1] = Measurement of mRNA encapsulation in lipid nanoparticles (Quant-iT Ribogreen); details: for % encapsulation mRNA Leptin: Leptin mRNA in LNP
Outline: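 LNPs were formed by T-junction mixing of ethanolic lipids (cationic lipid:DSPC:cholesterol:PEG lipid 40:10:38:2) with mRNA in citrate pH 5.8–6.0 at N:P 4:1, then dialysed against PBS overnight at 4 °C. RiboGreen fluorescence (ex 480/em 520 nm) was read on samples diluted 400–2,000-fold in TE with or without 0.75% Triton X-100 and quantified against standard curves. Encapsulation % = (Triton − buffer concentration)/Triton concentration.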

[2] = Measurement of plasmid DNA encapsulation in lipid nanoparticles (Quant-iT Ribogreen)
Method: All equipment and disposable supplies are certified free of RNase activity by the manufacturer or rendered RNase free by use of the RNaseZap reagent (LifeTechnologies). Plasmid is encapsulated at a cationic lipid amine to DNA phosphate (N:P) molar ratio of 4:1. Lipids (cationic lipid, DSPC, cholesterol and lipidated PEG) are dissolved in ethanol. The molar ratios are 40:10:38:2, respectively. The mixture is sonicated briefly, then gently agitated for 5 minutes and then maintained at 37° C. until use. Plasmid is exchanged into citrate buffer pH 6.0 by use of Amicon Ultra-15 centrifugal concentrators, and the final concentration is adjusted to 0.053 mg/ml and held at 37° C. until use. An equal volume of lipids in ethanol, plasmid in citrate buffer, and citrate buffer alone are drawn into disposable syringes. Tubing leading from syringes containing lipids and DNA are attached to the T junction, and tubing leading from the syringe containing citrate buffer alone is paired with the tubing exiting the T-junction over a collection vessel containing a stir bar on an active stir plate. Syringes are placed in a syringe pump set to expel contents at a flow rate of 1 ml per minute. The pump is activated, and the collected DNA in lipid nanoparticles is transferred to SnakeSkin dialysis tubing (10,000 MWCO, Thermo Scientific). Material is dialyzed against RNAse- and pyrogen-free 1× phosphate buffered saline overnight at 4° C.
Percent encapsulation of plasmid DNA in lipid nanoparticles is determined using the Quant-iT Ribogreen RNA Assay kit (Life Technologies). The LNP-DNA suspension is assayed in buffer (DNA outside the particle), and buffer plus Triton X-100 detergent (total DNA). The difference calculated is the DNA inside the particle. Prepare a 1000 ng/mL stock using unpackaged plasmid and use this to generate a standard curve (0 ng/ml, 15.63-1000 ng/ml) in TE and TE+0.75% Triton X-100. Prepare LNP-plasmid samples in TE buffer and TE buffer+0.75% Triton X-100 with appropriate dilution so that reading is in the range of standard curve (25 fold). In a 384-well plate (Costar non-treated #3573) add 0.04 ml of standard (in duplicate) or sample (in triplicate) per well. Dilute Ribogreen reagent 240-fold in TE buffer and add 0.06 ml per well. Mix contents of wells and measure fluorescence (excitation=480 nm, emission=520 nm). Subtract background values (no DNA) from standard and test sample values and determine the concentrations of DNA in the samples using the standard curves. Determine the percent encapsulation of the sample by dividing the difference in concentrations between sample+triton and sample in buffer alone by the sample+triton concentration.

[3] = Polydispersity index (PDI) by dynamic light scattering; details: for PDI 1st IM / PDI 2nd IM: RSV-F replicon RNA LNP, DLS; for PDI 1st IM: 1st immunization; for PDI 2nd IM: 2nd immunization
Method: Unless indicated otherwise, all PDIs referred to herein are the PDI of the fully formed nanoparticle, as measured by dynamic light scattering on a Malvern Zetasizer. The nanoparticle sample was diluted in phosphate buffered saline (PBS) so that the count rate was approximately 200-400 kcts. The data is presented in Table 3 as a weighted average of the intensity measure.
% entrapment (% E), Concentration of RNA (Conc), particle size measured by DLS, and polydispersity reported by DLS of LNPs prepared with different cationic lipids

Row | SMILES | % Encap. ([1]; FLuc mRNA) | % Encap. ([1]; Gluc mRNA) | % encapsulation mRNA Leptin [1] | % Encap. ([1]; hFIX mRNA) | % Encap. ([1]; hLeptin mRNA) | % Encap. ([1]; mEPO mRNA) | % Encap. ([2]; hLep plasmid) | % Encap. ([2]; pDNA) | PDI ([3]; FLuc mRNA) | PDI ([3]; FVII siRNA) | PDI ([3]; Gluc mRNA) | PDI 1st IM [3] | PDI 2nd IM [3] | PDI ([3]; hFIX mRNA) | PDI ([3]; hLep plasmid) | PDI ([3]; hLeptin mRNA) | PDI ([3]; mEPO mRNA) | PDI ([3]; pDNA)
1 | CCCCC/C=C\C/C=C\CCCCCCCC(=O)OCC(COC(=O)CCCCCCC/C=C\C/C=C\CCCCC)COC(=O)C1(C)CCN(C)C1 (stereo not drawn) [Example 1, (9Z,9′Z,12Z,12′Z)-2-(((1,3-dimethylpyrrolidine-3-carbonyl)oxy)methyl)propane-1,3-diyl bis(octadeca-9,12-dienoate)] | 86.8% | 92.3% | 96.7% | 89.5% | 96.7% | 94.7% | 93.0% | 94.7% | 0.152 | 0.049 | 0.136 | 0.122 | 0.11 | 0.090 | 0.182 | 0.105 | 0.145 | 0.100
2 | CCCCC/C=C\C/C=C\CCCCCCCC(=O)OCC(COC(=O)CCC(OCCCCCCCC)OCCCCCCCC)COC(=O)OCCCN(CC)CC (stereo not drawn) [Example 13, (9Z,12Z)-3-((4,4-bis(octyloxy)butanoyl)oxy)-2-((((3-(diethylamino)propoxy)carbonyl)oxy)methyl)propyl octadeca-9,12-dienoate] | 98.3% | 97.2% | 90.7% | 96.4% | 95.4% | 98.5% | 95.9% | 98.2% | 0.140 | 0.037 | 0.099 | – | – | 0.154 | 0.158 | 0.093 | 0.129 | 0.160
3 | CCCCC/C=C\C/C=C\CCCCCCCC(=O)OCC(COC(=O)CCC(OCCCCCCCC)OCCCCCCCC)COC(=O)OCC1CCCN(CC)C1 (stereo not drawn) [Example 15, (9Z,12Z)-3-((4,4-bis(octyloxy)butanoyl)oxy)-2-(((((1-ethylpiperidin-3-yl)methoxy)carbonyl)oxy)methyl)propyl octadeca-9,12-dienoate] | 98.1% | 98.1% | 97.3% | 98.4% | 97.3% | 98.3% | 93.6% | 93.2% | 0.132 | – | 0.133 | 0.121 | 0.097 | 0.182 | 0.149 | 0.125 | 0.125 | 0.110
